Experimental data as given in PubChem BioAssay AID248 (DTP/NCI, 2004).
Several values for one entry are separate records, joined by “and”; a condition that tells them apart may be missing. Identical values can stand only once. Toxic doses and inconclusive results are not listed. Cut-off read from the data, not from the text of the source: active = T/C of 150% or more; inactive = T/C below 125%.

Test system: L1210 leukemia ip in BDF1 mice, survival T/C
Test: NCI In Vivo Anticancer Drug Screen. Data for tumor model L1210 Leukemia (intraperitoneal) in B6D2F1 (BDF1) mice
Conditions: endpoint: mean survival time, higher = longer survival
How it was run: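 Read-out is survival time, reported as the treated-group measurement over the vehicle-control measurement.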

[1] = dose: 100.0 mg/kg/injection, schedule: Q01DX001 (ip), vehicle: saline
[2] = dose: 200.0 mg/kg/injection, schedule: Q01DX001 (ip), vehicle: saline
[3] = dose: 400.0 mg/kg/injection, schedule: Q01DX001 (ip), vehicle: saline
[4] = dose: 100.0 mg/kg/injection, schedule: Q01DX009 (ip), vehicle: saline with Tween-80
[5] = dose: 100.0 mg/kg/injection, schedule: Q04DX003 (ip), vehicle: saline with Tween-80
[6] = dose: 200.0 mg/kg/injection, schedule: Q01DX009 (ip), vehicle: saline with Tween-80
[7] = dose: 200.0 mg/kg/injection, schedule: Q04DX003 (ip), vehicle: saline with Tween-80
[8] = dose: 400.0 mg/kg/injection, schedule: Q04DX003 (ip), vehicle: saline with Tween-80
[9] = dose: 100.0 mg/kg/injection, schedule: Q01DX009 (ip), vehicle: Klucel (hydroxypropylcellulose) (HPC)
[10] = dose: 100.0 mg/kg/injection, schedule: Q04DX002 (ip), vehicle: Klucel (hydroxypropylcellulose) (HPC)
[11] = dose: 200.0 mg/kg/injection, schedule: Q01DX009 (ip), vehicle: Klucel (hydroxypropylcellulose) (HPC)
[12] = dose: 200.0 mg/kg/injection, schedule: Q04DX002 (ip), vehicle: Klucel (hydroxypropylcellulose) (HPC)
[13] = dose: 400.0 mg/kg/injection, schedule: Q01DX009 (ip), vehicle: Klucel (hydroxypropylcellulose) (HPC)
[14] = dose: 400.0 mg/kg/injection, schedule: Q04DX002 (ip), vehicle: Klucel (hydroxypropylcellulose) (HPC)
[15] = dose: 100.0 mg/kg/injection, schedule: Q01DX009 (ip), vehicle: saline
[16] = dose: 100.0 mg/kg/injection, schedule: Q04DX003 (ip), vehicle: saline
[17] = dose: 200.0 mg/kg/injection, schedule: Q01DX009 (ip), vehicle: saline
[18] = dose: 200.0 mg/kg/injection, schedule: Q04DX003 (ip), vehicle: saline
[19] = dose: 400.0 mg/kg/injection, schedule: Q04DX003 (ip), vehicle: saline
[20] = dose: 100.0 mg/kg/injection, schedule: Q01DX001 (ip), vehicle: Klucel (hydroxypropylcellulose) (HPC)
[21] = dose: 100.0 mg/kg/injection, schedule: Q04DX003 (ip), vehicle: Klucel (hydroxypropylcellulose) (HPC)
[22] = dose: 200.0 mg/kg/injection, schedule: Q01DX001 (ip), vehicle: Klucel (hydroxypropylcellulose) (HPC)
[23] = dose: 200.0 mg/kg/injection, schedule: Q04DX003 (ip), vehicle: Klucel (hydroxypropylcellulose) (HPC)
[24] = dose: 400.0 mg/kg/injection, schedule: Q01DX001 (ip), vehicle: Klucel (hydroxypropylcellulose) (HPC)
[25] = dose: 400.0 mg/kg/injection, schedule: Q04DX003 (ip), vehicle: Klucel (hydroxypropylcellulose) (HPC)

Measured: T/C

O=C1C=C(C2OC(CO)C(O)C2O)C(=O)N1 (configuration not stated)
inactive: dose: 6.0 mg/kg/injection, schedule: Q01DX015 (ip), vehicle: saline 113 % of control | dose: 6.0 mg/kg/injection, schedule: Q01DX Z (ip), vehicle: saline 115 % of control | dose: 6.2 mg/kg/injection, schedule: Q01DX001 (ip), vehicle: saline 97 % of control | dose: 9.0 mg/kg/injection, schedule: Q01DX001 (ip), vehicle: saline 101 % of control | dose: 9.0 mg/kg/injection, schedule: Q01DX015 (ip), vehicle: saline 113 % of control | dose: 9.0 mg/kg/injection, schedule: Q01DX Z (ip), vehicle: saline 122 % of control | dose: 12.0 mg/kg/injection, schedule: Q01DX001 (ip), vehicle: saline 100 % of control | dose: 12.5 mg/kg/injection, schedule: Q01DX001 (ip), vehicle: saline 109 % of control | dose: 15.0 mg/kg/injection, schedule: Q01DX001 (ip), vehicle: saline 106 % of control | dose: 15.0 mg/kg/injection, schedule: Q01DX015 (ip), vehicle: saline 122 % of control | dose: 15.0 mg/kg/injection, schedule: Q01DX Z (ip), vehicle: saline 110 % of control

O=c1[nH]nc(Sc2ccccc2)c(=O)[nH]1
inactive: [1] 97 % of control | [2] 97 % of control | [3] 97 % of control

O=C1NC(=O)C(c2ccc(O)cc2)N1 (configuration not stated)
inactive: dose: 50.0 mg/kg/injection, schedule: Q01DX001 (ip), vehicle: saline 105 % of control | [1] 100 % of control | [4] 91 % of control | [5] 103 % of control | [2] 97 % of control | [6] 87 % of control | [7] 100 % of control | [3] 108 % of control | [8] 94 % of control

CCOC(=O)c1ccc(NCCC(=O)CBr)cc1
inactive: dose: 5.0 mg/kg/injection, schedule: Q01DX001 (ip), vehicle: carboxymethylcellulose (CMC) 97 % of control | dose: 10.0 mg/kg/injection, schedule: Q01DX001 (ip), vehicle: carboxymethylcellulose (CMC) 97 % of control | dose: 20.0 mg/kg/injection, schedule: Q01DX001 (ip), vehicle: carboxymethylcellulose (CMC) 92 % of control | dose: 40.0 mg/kg/injection, schedule: Q01DX001 (ip), vehicle: carboxymethylcellulose (CMC) 100 % of control

CCCCCC(C)(C1=NC(C)(C)CC(C)O1)c1ccccc1 (configuration not stated)
inactive: dose: 100.0 mg/kg/injection, schedule: Q01DX009 (ip), vehicle: saline sonified 93 % of control | dose: 200.0 mg/kg/injection, schedule: Q01DX009 (ip), vehicle: saline sonified 104 % of control | dose: 400.0 mg/kg/injection, schedule: Q01DX009 (ip), vehicle: saline sonified 93 % of control

COc1ccc(C(=O)CC(Sc2ccccc2N)c2ccc(OC)cc2)cc1 (configuration not stated)
inactive: [9] 87 % of control | [10] 98 % of control | [11] 91 % of control | [12] 95 % of control | [13] 87 % of control | [14] 113 % of control

Cc1nccc(=O)[nH]1
inactive: [15] 99 % of control | [16] 106 % of control | [17] 99 % of control | [18] 106 % of control | [19] 92 % of control

C=C(C)C1(CC)C(=O)NC(=O)N(C)C1=O (configuration not stated)
inactive: dose: 75.0 mg/kg/injection, schedule: Q01DX001 (ip), vehicle: carboxymethylcellulose (CMC) 102 % of control | dose: 75.0 mg/kg/injection, schedule: Q01DX001 (ip), vehicle: saline 97 % of control | dose: 150.0 mg/kg/injection, schedule: Q01DX001 (ip), vehicle: carboxymethylcellulose (CMC) 105 % of control | dose: 150.0 mg/kg/injection, schedule: Q01DX001 (ip), vehicle: saline 102 % of control | dose: 300.0 mg/kg/injection, schedule: Q01DX001 (ip), vehicle: carboxymethylcellulose (CMC) 103 % of control | dose: 300.0 mg/kg/injection, schedule: Q01DX001 (ip), vehicle: saline 108 % of control

CCOC(=O)C1CC(=O)NC(N)=N1 (configuration not stated)
inactive: dose: 100.0 mg/kg/injection, schedule: Q01DX Z (ip), vehicle: saline 95 % of control | dose: 200.0 mg/kg/injection, schedule: Q01DX Z (ip), vehicle: saline 100 % of control

Cc1cc(OC(=O)Nc2cc(Cl)ccc2C)c(C(C)C)cc1Cl
inactive: [20] 90 % of control | [9] 102 % of control and 88 % of control | [10] 96 % of control | [21] 103 % of control | [22] 91 % of control | [11] 97 % of control | [12] 94 % of control | [23] 94 % of control | [24] 88 % of control | [13] 94 % of control and 86 % of control | [14] 91 % of control | [25] 96 % of control

CC(=N/Nc1ccc([N+](=O)[O-])cc1[N+](=O)[O-])/C(C)=C/C1C=CCCC1(C)C (configuration not stated)
inactive: dose: 100.0 mg/kg/injection, schedule: Q04DX002 (ip), vehicle: saline with Tween-80 100 % of control | dose: 200.0 mg/kg/injection, schedule: Q04DX002 (ip), vehicle: saline with Tween-80 103 % of control | dose: 400.0 mg/kg/injection, schedule: Q04DX002 (ip), vehicle: saline with Tween-80 96 % of control

COc1ccc(C(=O)Nc2ccccc2)cc1NC(=O)NC(C)=O
inactive: [9] 97 % of control | [11] 106 % of control | [13] 100 % of control

CCN1/C(=C/C(C)=C/c2[se]c3ccccc3[n+]2CC)[Se]c2ccc(OC)cc21
inactive: dose: 5.0 mg/kg/injection, schedule: Q01DX001 (ip), vehicle: saline 105 % of control | dose: 10.0 mg/kg/injection, schedule: Q01DX001 (ip), vehicle: saline 100 % of control | dose: 20.0 mg/kg/injection, schedule: Q01DX001 (ip), vehicle: saline 97 % of control | dose: 40.0 mg/kg/injection, schedule: Q01DX001 (ip), vehicle: saline 100 % of control

CC(=O)N1C(=O)NC(=O)C1(C)c1ccc(Cl)s1 (configuration not stated)
inactive: [4] 96 % of control | [5] 100 % of control | [6] 103 % of control | [7] 97 % of control | dose: 400.0 mg/kg/injection, schedule: Q01DX009 (ip), vehicle: saline with Tween-80 91 % of control | [8] 88 % of control

Cc1ccc(C(=O)C2OC2c2ccccc2)cc1 (configuration not stated)
inactive: [20] 97 % of control | [22] 95 % of control | [24] 89 % of control

Nc1cccc2scnc12
inactive: [5] 90 % of control | [7] 95 % of control | [8] 90 % of control

Cc1cnc2ccccc2c1
inactive: [1] 100 % of control | [2] 100 % of control

CC(=O)c1cccc(OC(=O)Oc2cccc(C(C)=O)c2)c1
inactive: dose: 100.0 mg/kg/injection, schedule: Q01DX001 (ip), vehicle: carboxymethylcellulose (CMC) 95 % of control | dose: 200.0 mg/kg/injection, schedule: Q01DX001 (ip), vehicle: carboxymethylcellulose (CMC) 90 % of control | dose: 400.0 mg/kg/injection, schedule: Q01DX001 (ip), vehicle: carboxymethylcellulose (CMC) 95 % of control

CC(C)(C)c1ccc(S(=O)(=O)c2ccc(C(C)(C)C)cc2)cc1
inactive: [21] 94 % of control | [23] 105 % of control | [25] 91 % of control

O=C(COc1cccc(Cl)c1Cl)Nc1cccnc1
inactive: [5] 102 % of control | [7] 96 % of control | [8] 98 % of control

CNC(=S)C(=S)NC
inactive: dose: 12.5 mg/kg/injection, schedule: Q04DX003 (ip), vehicle: saline with Tween-80 94 % of control | dose: 25.0 mg/kg/injection, schedule: Q04DX003 (ip), vehicle: saline with Tween-80 95 % of control

CCOC(=O)C(CC1OCCO1)C1=NC(C)(C)CC(C)O1 (configuration not stated)
inactive: [15] 96 % of control | [16] 106 % of control | [17] 100 % of control | [18] 92 % of control | dose: 400.0 mg/kg/injection, schedule: Q01DX009 (ip), vehicle: saline 96 % of control | [19] 92 % of control
